Measurements published in US12336981B2, “Compounds and compositions for the inhibition of NAMPT” (Valo Health, Inc., priority 2010, dated 2025).
Read-outs that look alike come from different tables or passages of the source.

What was measured:
NAMPT = biological target: T1, NAMPT (Homo sapiens, UniProt P43490); assay: Biochemical inhibition assay: NAMPT enzymatic reaction, NMN quantified by mass spectrometry; settings: read-out: Biochem IC50
T1 construct: His tag; host or cells: E. coli
In short: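 Inhibition of E. coli-expressed His-tagged human NAMPT, measured as NMN formation by mass spectrometry after a 30 min room-temperature reaction containing 1 μM NAM, 100 μM PRPP and 2.5 mM ATP.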

A2780 cells = assay: In-vitro cell proliferation assay (SRB), A2780 cells; assay type: cell-based; settings: Homo sapiens, A2780, 72 h, A2780 cells, 72 hours, read-out: A2780 IC50
In short: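 Viable cells measured by SRB staining after 6% TCA fixation, absorbance 570 nm. Media-only background subtracted; % inhibition derived at two compound concentrations.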

T1 sequence (P43490 whole entry): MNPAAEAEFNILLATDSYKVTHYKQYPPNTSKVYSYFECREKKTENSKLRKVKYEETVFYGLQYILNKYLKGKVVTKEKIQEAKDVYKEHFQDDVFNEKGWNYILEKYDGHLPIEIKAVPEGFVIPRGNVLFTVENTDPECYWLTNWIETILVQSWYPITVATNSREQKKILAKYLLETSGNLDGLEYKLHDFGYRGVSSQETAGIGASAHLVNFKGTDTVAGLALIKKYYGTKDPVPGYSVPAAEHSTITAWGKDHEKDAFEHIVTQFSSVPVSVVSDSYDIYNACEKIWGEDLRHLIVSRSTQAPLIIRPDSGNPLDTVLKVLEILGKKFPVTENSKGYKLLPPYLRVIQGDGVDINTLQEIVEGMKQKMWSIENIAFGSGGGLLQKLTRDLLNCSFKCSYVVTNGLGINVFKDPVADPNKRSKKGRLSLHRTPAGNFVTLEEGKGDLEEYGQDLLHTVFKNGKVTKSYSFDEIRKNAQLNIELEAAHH

Row | Structure (SMILES) | IC50 (NAMPT; NAMPT enzymatic assay) [nM] | IC50 (A2780 cells; SRB) [nM] | IC50 (NAMPT; NAMPT enzymatic reaction) [nM] | IC50 (A2780 cells; SRB assay) [nM]
1 | O=C(NCc1ccc(S(=O)(=O)c2cccc(C(F)(F)F)c2Cl)cc1)c1cnc2[nH]ncc2c1 [N-[(4-{[2-chloro-3-(trifluoromethyl)benzene]sulfonyl}phenyl)methyl]-1H-pyrazolo[3,4-b]pyridine-5-carboxamide] | 36.5 | 38.4 |  | 
2 | CNS(=O)(=O)c1ccccc1S(=O)(=O)c1ccc(CNC(=O)c2cc3cnccc3[nH]2)cc1 [N-[(4-{[2-(methylsulfamoyl)benzene]sulfonyl}phenyl)methyl]-1H-pyrrolo[3,2-c]pyridine-2-carboxamide] |  |  | 76 | 202
3 | Cc1cc(C)cc(S(=O)(=O)c2ccc(CNC(=O)c3cnc4nccn4c3)cc2)c1 |  | 2 | 1.7 | 
4 | O=C(NCc1ccc(S(=O)(=O)c2cccc(Oc3ccc(F)cc3)c2)cc1)c1cc2ccncc2s1 | 2.6 | 65.6 |  | 
5 | CCOCc1ccccc1S(=O)(=O)c1ccc(CNC(=O)c2cnc3[nH]ncc3c2)cc1 | 52 | 61.2 |  | 
6 | COc1cccc(C)c1NS(=O)(=O)c1ccc(CNC(=O)c2cc3cnccc3[nH]2)cc1 [N-({4-[(2-methoxy-6-methylphenyl)sulfamoyl]phenyl}methyl)-1H-pyrrolo[3,2-c]pyridine-2-carboxamide] |  |  | 6 | 12400
7 | Cc1ccc(S(=O)(=O)c2ccc(CNC(=O)c3cc4ccncc4o3)cc2)cc1Cl |  | 1.7 | 52.8 | 
8 | O=C(NCc1ccc(S(=O)(=O)c2cccc3c2sc2ccccc23)cc1)c1cc2ccncc2s1 | 1.4 | 4.3 |  | 
9 | Cc1cc(C)cc(S(=O)(=O)c2ccc(CNC(=O)c3ccc4nccn4c3)cc2)c1 [N-({4-[(3,5-dimethylbenzene)sulfonyl]phenyl}methyl)imidazo[1,2-a]pyridine-6-carboxamide] |  | 3.17 | 6.76 | 
10 | CCCCOc1cc(F)ccc1S(=O)(=O)c1ccc(CNC(=O)c2cnc3[nH]ncc3c2)cc1 [N-({4-[(2-butoxy-4-fluorobenzene)sulfonyl]phenyl}methyl)-1H-pyrazolo[3,4-b]pyridine-5-carboxamide] |  | 100 to 1000 | 176 | 
11 | O=C(NCc1ccc(S(=O)(=O)c2ccc(F)c(OCC(F)(F)F)c2)cc1)c1cc2ccncc2o1 | 8.7 | 25.5 |  | 
12 | O=C(NCc1ccc(S(=O)(=O)c2ccc(OC(F)(F)F)cc2)cc1)c1cnc2[nH]ncc2c1 | 34.6 | 22.3 |  | 
13 | O=C(NCc1ccc(S(=O)(=O)c2ccccc2)cc1)c1nc2ccncc2s1 [N-{[4-(benzenesulfonyl)phenyl]methyl}-[1,3]thiazolo[5,4-c]pyridine-2-carboxamide] | 220 | > 10000 |  | 
14 | N#Cc1cccc(S(=O)(=O)c2ccc(CNC(=O)c3cnc4[nH]ncc4c3)cc2)c1 [N-({4-[(3-cyanobenzene)sulfonyl]phenyl}methyl)-1H-pyrazolo[3,4-b]pyridine-5-carboxamide] |  | 9.54 | 18.5 | 
15 | Cc1ncccc1S(=O)(=O)c1ccc(CNC(=O)c2cc3ccncc3s2)cc1 [N-{[4-(2-methylpyridine-3-sulfonyl)phenyl]methyl}thieno[2,3-c]pyridine-2-carboxamide] | 15.4 | 11.9 |  | 
16 | Cc1cc(C)c(S(=O)(=O)c2ccc(CNC(=O)c3cc4cnccc4[nH]3)cc2)c(C)c1 [N-({4-[(2,4,6-trimethylbenzene)sulfonyl]phenyl}methyl)-1H-pyrrolo[3,2-c]pyridine-2-carboxamide] | 76 | 46 |  | 
17 | Cc1ccc(C)c(S(=O)(=O)c2ccc(CNC(=O)c3cc4ccncc4s3)cc2)c1 [N-({4-[(2,5-dimethylbenzene)sulfonyl]phenyl}methyl)thieno[2,3-c]pyridine-2-carboxamide] |  |  | 11 | 8.6
18 | O=C(NCc1ccc(S(=O)(=O)c2ccc(-n3cccn3)cc2F)cc1)c1cc2ccncc2s1 [N-[(4-{[2-fluoro-4-(1H-pyrazol-1-yl)benzene]sulfonyl}phenyl)methyl]thieno[2,3-c]pyridine-2-carboxamide] |  |  | 6 | 8
